Measured values: US10676436B2, “NLRX1 ligands” (Landos Biopharma, Inc., priority 2018, dated 2020)

What was measured:
[1] = biological target: T1, mutated NLRX1 protein (D677A, F680A, F681A, E684A) (Homo sapiens, UniProt Q86UT6, D677A/E684A/F680A/F681A); experiment: Surface plasmon resonance binding to NLRX1-Mutant
T1 construct: made in house; host or cells: Pichia pastoris (by 'similar methods')
Description: NLRX1 production and purification. Human NLRX1 (www.uniprot.org; UniProtKB—Q86UT6 (NLRX1 HUMAN)) was cloned into E. coli, amplified and transfected in Pichia pastoris. P. pastoris was plated onto adenine selective media. Stable transfected colonies were selected and grown within YPD broth at 30° C. for 24 hours, 240 RPM shaking. Starter culture was used to inoculate base media (1% yeast extract, 2% peptone, 1% sorbitol, 2% yeast nitrogen base) containing biotin and buffered with potassium phosphate. Inoculated base media was incubated for 48 hours at 30° C., 240 RPM. P. pastoris was then pelleted by centrifugation and resuspended in expression media (1% sorbitol, 2% yeast nitrogen base) containing biotin and buffered with potassium phosphate. Culture was induced daily for protein production through addition of methanol and incubated for a total of 4 days at 28° C., 240 RPM. After incubation, cells were pelleted by centrifugation and lysed by sonication. Recombinant NLRX1 protein was purified by fast protein liquid chromatography (AktaPrime) using immobilized metal affinity chromatography. Fractions of protein were eluted in 1 mL aliquots and evaluated for NLRX1 content. A mutated NLRX1 protein was generated using similar methods to disrupt binding within the predicted binding site through altering four residues to alanine (D677A, F680A, F681A, and E684A).
A Biacore T200 was used to evaluate binding to the NLRX1 protein. NLRX1-WT and NLRX1-Mutant were used as proteins to immobilize onto the CM5 sensor chip. NLRX1-WT was diluted in 10 mM sodium acetate buffer at pH 4.0 and immobilized onto the flow cell to a level of ˜3700 RU, using standard amine coupling chemistry. NLRX1-Mutant was diluted in 10 mM sodium acetate buffer at pH 4.0 and immobilized onto the flow cell to a level of ˜3100 RU, using standard amine coupling chemistry. 20 mM MOPS, 150 mM NaCl, 5 mM sodium acetate, 1 mM EDTA, 0.05% Tween-20, pH 8.0 buffer (Running buffer) was used as the immobilization running buffer. Based on the immobilized response values, theoretical Rmax values were calculated. […]

CD4+ T cells = experiment: Immunological screening in vitro in CD4+ splenocytes, flow cytometry; type: cell-based, C57BL/6 mice
Source text: Spleens were excised from C57BL/6 mice. Spleens were crushed between the frosted ends of microscope slides and filtered to provide a cellular suspension. Red blood cells were lysed through hypotonic lysis. Remaining cells were washed and filtered. CD4+ T cells were enriched within the suspension using magnetic sorting based negative selection. Cells were collected and plated within 96 well plates coated with anti-CD3 and cultured in the presence of NX-13, NX-37, NX-43, NX-44, or NX-50 at 0, 0.1, 1 or 10 micromolar; NX-53, NX-54, NX-55, or NX-56 at 0, 0.1, or 1 micromolar; or NX-45 at 10, 50 or 100 nanomolar for 48 h. During the last 6 h of culture, cells were stimulated with phorbol 12-myristate-13-acetate (PMA) and ionomycin.
Cells were collected from 96 well plates and stained with a cocktail of antibodies for immunophenotyping by flow cytometry. Culture supernatant was collected and assayed for cytokine concentrations by cytometric bead array. Data was captured on a BD FACS Celesta and analyzed using FacsDiva.

[2] = tested on: MDR1a−/− model of colitis; experiment: MDR1a−/− model of colitis (chronic model of IBD); type: in vivo, mice
Description: MDR1a−/− model. Mice deficient in MDR1a spontaneously develop colitis. MDR1a−/− began receiving NX-13 treatment (oral, 20 mg/kg) at 4 weeks of age and continued treatment until 10 weeks of age. Mice were weighed and scored weekly. NX-13 was prepared within a 0.5% methylcellulose (12-15 cP) solution. Dosage used was 20 mg/kg delivered once daily. Mice were weighed on a weekly basis to update dosage formulation. Dosage was calculated based off mean body weights for each gender. Oral dosage was delivered by orogastric gavage of dosage in 0.2 mL volume. Colons were collected into RPMI/FBS buffer containing collagenase (300 U/mL) and DNase (50 U/mL) for digestion. Tissues were digested for 60 minutes under stirring at 37° C. Resultant cellular suspensions were filtered through 100 μm strainers, centrifuged (300× g, 8 min), and washed in fresh RPMI. Following filtration of the resulting single cell suspensions, immune cells were purified by Percoll gradient of cell-containing 40% Percoll overlayed onto 70% Percoll solution. After centrifugation, interphase was collected and washed to obtain enriched colonic lamina propria cell fractions. Cells were labeled with mixtures of extracellular (CD45, CD3, CD4, CD8, CD19, NK1.1, CD25, F4/80, CD11b, Gr1, CX3CR1, CD64) and intracellular (Tbet, RORγT, FOXP3, IFNγ, IL17, IL10) antibodies in a sequential live staining in 96-well plates. Data was acquired using a FACS Celesta flow cytometer with FACSDiva software. H&E stained colonic sections were prepared from portions of colons collected into 10% buffered formalin and embedded in paraffin. Slides were examined by a board-certified veterinary pathologist via an Olympus microscope and images were collected with Image-Pro software. Samples were scored (0-4) for leukocytic infiltration, epithelial erosion and mucosal thickening.

[3] = wild-type cells, 48 h, PMA and ionomycin
[4] = six weeks of treatment, flow cytometry

T1 sequence (Q86UT6 87-975 D677A/F680A/F681A/E684A): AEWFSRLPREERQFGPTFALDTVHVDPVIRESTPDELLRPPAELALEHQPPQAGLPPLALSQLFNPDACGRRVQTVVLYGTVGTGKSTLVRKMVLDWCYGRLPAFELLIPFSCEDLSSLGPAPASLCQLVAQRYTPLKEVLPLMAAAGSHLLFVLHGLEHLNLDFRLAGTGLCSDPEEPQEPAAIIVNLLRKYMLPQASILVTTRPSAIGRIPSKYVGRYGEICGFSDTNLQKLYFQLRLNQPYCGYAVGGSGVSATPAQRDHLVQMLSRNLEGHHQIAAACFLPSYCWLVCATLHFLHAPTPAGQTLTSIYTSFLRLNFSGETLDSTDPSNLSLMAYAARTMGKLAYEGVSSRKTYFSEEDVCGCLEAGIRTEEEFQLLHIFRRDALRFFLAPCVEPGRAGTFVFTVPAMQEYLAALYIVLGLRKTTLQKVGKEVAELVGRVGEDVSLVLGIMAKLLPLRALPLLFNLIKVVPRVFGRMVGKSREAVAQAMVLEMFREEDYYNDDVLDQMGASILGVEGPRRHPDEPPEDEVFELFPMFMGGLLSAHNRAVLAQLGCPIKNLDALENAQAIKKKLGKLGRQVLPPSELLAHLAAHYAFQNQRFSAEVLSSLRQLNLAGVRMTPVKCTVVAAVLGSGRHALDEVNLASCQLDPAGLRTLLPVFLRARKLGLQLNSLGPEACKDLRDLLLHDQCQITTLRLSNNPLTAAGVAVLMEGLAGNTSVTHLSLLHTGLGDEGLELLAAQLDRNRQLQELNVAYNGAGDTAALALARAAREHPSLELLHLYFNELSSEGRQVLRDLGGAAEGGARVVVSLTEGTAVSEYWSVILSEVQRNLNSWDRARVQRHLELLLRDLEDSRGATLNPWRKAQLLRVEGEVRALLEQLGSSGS

Structure (SMILES): Cc1cccc(Oc2cc(Oc3cccc(C)n3)cc(Oc3cccc(C)n3)c2)n1 [NX-13, 1,3,5-tris (6-methylpyridin-2-yloxy) benzene]
- binding to the mutated NLRX1 protein [1]: Loss of binding
- function at NLRX1 concluded from the cytokine results (CD4+ T cells): activators of NLRX1
- effects on IFNγ and TNFα producing CD4+ T cells in the absence of NLRX1 (CD4+ T cells; NLRX1 deficient cells): these effects were lost
- proportion of IFNγ producing (IFNγ+) CD4+ T cells (CD4+ T cells; [3]): reduced
- proportion of TNFα producing (TNFα+) CD4+ T cells (CD4+ T cells; [3]): reduced
- development of leukocyte aggregates and thickening of the mucosa ([2]; after six weeks of treatment): protected against
- overall leukocytic infiltration and epithelial erosion ([2]; after six weeks of treatment): reduced
- maximal observed reduction of disease activity ([2]; oral 20 mg/kg once daily, week six of treatment): 70%
- colonic pathology ([2]; oral, six weeks of treatment, H&E): greatly reduced
- numbers of F4/80hi macrophages [2, 4]: greatly reduced
- numbers of IL-17 and IFNγ producing T cells [2, 4]: greatly reduced
- proportions of Th1 cells in the colonic lamina propria [2, 4]: reduces
- proportions of neutrophils in the colonic lamina propria [2, 4]: reduces
- proportions of regulatory CD4+ T (Treg) cells in the colon [2, 4]: increased
